US10219516B2, “Molecules having pesticidal utility, and intermediates, compositions, and processes, related thereto” (priority 2015, dated 2019)
Like-named read-outs stand apart in the source and are kept apart here.

What was measured:
Format in all cases: in vivo
[1] = test system: Beet Armyworm (Spodoptera exigua, LAPHEG); assay: Bioassay on Beet Armyworm (BAW), 128-well diet tray assay
Summary of the method: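 Diet tray, 8 wells/compound; 50 μg/cm^2 applied to diet surface (90:10 acetone-water), dried. 1–5 L2 larvae/well; 25° C., 14:10 L:D, 5–7 d. Read-out: % mortality, mean of 8 wells.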

[2] = test system: Cabbage Looper (Trichoplusia ni, TRIPNI); assay: Bioassay on Cabbage Looper (CL), 128-well diet tray assay; conditions: Trichoplusia ni
Summary of the method: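 Mortality of second instar larvae exposed to diet coated with 50 μg/cm^2 compound (acetone-water 90:10 vehicle, dried); 25° C., 5–7 days.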

[3] = test system: Green Peach Aphid (Myzus persicae, MYZUPE); assay: Bioassay on Green Peach Aphid (GPA), foliar spray on infested cabbage seedlings; conditions: 72 h
Description: Certain molecules disclosed in this document were tested against GPA using procedures described in the following example. In the reporting of the results, the “GPA & YFM Rating Table” was used (See Table Section).
Cabbage seedlings grown in 3-inch pots, with 2-3 small (3-5 cm) true leaves, were used as test substrate. The seedlings were infested with 20-50 GPA (wingless adult and nymph stages) one day prior to chemical application. Four pots with individual seedlings were used for each treatment. Test molecules (2 mg) were dissolved in 2 mL of acetone/methanol (1:1) solvent, forming stock solutions of 1000 ppm test molecule. The stock solutions were diluted 5× with 0.025% Tween 20 in water to obtain the solution at 200 ppm test molecule. A hand-held aspirator-type sprayer was used for spraying a solution to both sides of […] leaves until runoff. Reference plants (solvent check) were sprayed with the diluent only containing 20% by volume of acetone/methanol (1:1) solvent. Treated plants were held in a holding room for three days at approximately 25° C. and ambient relative humidity (RH) prior to grading. Evaluation was conducted by counting the number of live aphids per plant under a microscope. Percent control was measured using Abbott's correction formula (W. S. Abbott, “A Method of Computing the Effectiveness of an Insecticide” 3. Econ. Entomol. 18 (1925), pp. 265-267) as follows. Corrected % Control=100*(X−Y)/X where X=No. of live aphids on solvent check plants and Y=No. of live aphids on treated plants. The results are indicated in the table entitled “Table ABC: Biological Results” (See Table Section).

[4] = test system: Yellow Fever Mosquito (Aedes aegypti, AEDSAE); assay: Bioassay on Yellow Fever Mosquito (YFM), 96-well plate larval assay; conditions: for YFM (Biological Results, rating): Species YFM (Yellow Fever Mosquito); for YFM rating: Yellow Fever Mosquito, 96-well plate larval assay
Summary of the method: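 Compound stocks at 4000 ppm in DMSO were diluted with 90:10 water/acetone, and 15 μL aliquots were dispensed into six replicate plates. About 1-day-old larvae in liver-powder water were added per well. Plates were covered and held at room temperature for 3 days before each well was scored for mortality.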

[5] = Species BAW (Beet Armyworm), read-out: BAW (Biological Results, rating)
[6] = Species CL (Cabbage Looper), read-out: CL (Biological Results, rating)
[7] = foliar, Species GPA (Green Peach Aphid), read-out: GPA (Biological Results, rating)
[8] = Beet Armyworm, 128-well diet tray assay, read-out: BAW rating
[9] = Cabbage Looper, 128-well diet tray assay, read-out: CL rating
[10] = Green Peach Aphid, foliar spray on cabbage seedlings, read-out: GPA rating

O=C(Nc1ccc(F)cc1)c1nc(NC(=O)[C@H]2[C@H](c3cc(Cl)cc(Cl)c3)C2(Cl)Cl)ccc1Cl (relative stereo) [F131, trans-3-Chloro-6-(2,2-dichloro-3-(3,5-dichlorophenyl)cyclopropane-1-carboxamido)-N-(4-fluorophenyl)picolinamide]
pest or weed control at 50 µg/cm2 [1, 5]: 50 to 100% | pest or weed control at 50 µg/cm2 [2, 6]: 50 to 100% | pest or weed control at 200 µg/mL [3, 7]: 0 to 80% | YFM (Biological Results, rating) [4]: A (80-100)

O=C(Nc1ccc(F)cc1)c1cccc(NC(=O)[C@H]2[C@H](c3cc(Cl)cc(Cl)c3)C2(Cl)Cl)c1 (relative stereo) [F2, trans-3-(2,2-Dichloro-3-(3,5-dichlorophenyl)cyclopropane-1-carboxamido)-N-(4-fluorophenyl)benzamide]
pest or weed control at 50 µg/cm2 [1, 5]: 50 to 100% | pest or weed control at 50 µg/cm2 [2, 6]: 50 to 100% | pest or weed control at 200 µg/mL [3, 7]: 0 to 80% | YFM (Biological Results, rating) [4]: A (80-100)

N#Cc1cc(F)ccc1NC(=O)c1cc(NC(=O)[C@H]2[C@H](c3cc(Cl)cc(Cl)c3)C2(Cl)Cl)ccc1Cl (relative stereo) [PF67, trans-2-Chloro-N-(2-cyano-4-fluorophenyl)-5-(2,2-dichloro-3-(3,5-dichlorophenyl)cyclopropane-1-carboxamido)benzamide]
pest or weed control at 50 µg/cm2 [1, 8]: 50 to 100% | pest or weed control at 50 µg/cm2 [2, 9]: 50 to 100% | pest or weed control at 200 µg/mL [3, 10]: 80 to 100% | YFM rating [4]: B (More than 0-Less than 80)

O=C(Nc1cccc(F)c1)c1cc(NC(=O)[C@H]2[C@H](c3cc(Cl)cc(Cl)c3)C2(Cl)Cl)ccc1Cl (relative stereo) [F20, trans-2-Chloro-5-(2,2-dichloro-3-(3,5-dichlorophenyl)cyclopropane-1-carboxamido)-N-(3-fluorophenyl)benzamide]
pest or weed control at 50 µg/cm2 [1, 5]: 50 to 100% | pest or weed control at 50 µg/cm2 [2, 6]: 50 to 100% | pest or weed control at 200 µg/mL [3, 7]: 0 to 80% | YFM (Biological Results, rating) [4]: A (80-100)

O=C(Nc1ccsc1)c1cc(NC(=O)[C@H]2[C@H](c3cc(Cl)cc(Cl)c3)C2(Cl)Cl)ccc1Cl (relative stereo) [PF152, trans-2-Chloro-5-(2,2-dichloro-3-(3,5-dichlorophenyl)cyclopropane-1-carboxamido)-N-(thiophen-3-yl)benzamide]
pest or weed control at 50 µg/cm2 [1, 8]: 50 to 100% | pest or weed control at 50 µg/cm2 [2, 9]: 50 to 100% | pest or weed control at 200 µg/mL [3, 10]: 0 to 80% | YFM rating [4]: B (More than 0-Less than 80)

O=C(Nc1cnc2[nH]ccc2c1)c1cc(NC(=O)[C@H]2[C@H](c3cc(Cl)cc(Cl)c3)C2(Cl)Cl)ccc1Cl (relative stereo) [F481, 2-Chloro-5-(trans)-(2,2-dichloro-3-(3,5-dichlorophenyl)cyclopropane-1-carboxamido)-N-(1H-pyrrolo[2,3-b]pyridin-5-yl)benzamide]
pest or weed control at 50 µg/cm2 [1, 8]: 50 to 100% | pest or weed control at 50 µg/cm2 [2, 9]: 50 to 100% | pest or weed control at 200 µg/mL [3, 10]: 0 to 80% | YFM rating [4]: A (80-100)

O=C(Nc1ccc(F)cc1C(F)(F)F)c1cc(NC(=O)[C@H]2[C@H](c3cc(Cl)cc(Cl)c3)C2(Cl)Cl)ccc1Cl (relative stereo) [PF69, trans-2-chloro-5-(2,2-dichloro-3-(3,5-dichlorophenyl)cyclopropane-1-carboxamido)-N-(4-fluoro-2-(trifluoromethyl)phenyl)benzamide]
pest or weed control at 50 µg/cm2 [1, 8]: 50 to 100% | pest or weed control at 50 µg/cm2 [2, 9]: 50 to 100% | pest or weed control at 200 µg/mL [3, 10]: 80 to 100% | YFM rating [4]: B (More than 0-Less than 80)

CN(C(=O)c1cc(NC(=O)[C@H]2[C@H](c3ccc(Cl)c(Cl)c3)C2(Cl)Cl)ccc1Cl)c1ccc(F)cc1 (relative stereo) [F53, trans-2-Chloro-5-(2,2-dichloro-3-(3,4-dichlorophenyl)cyclopropane-1-carboxamido)-N-(4-fluorophenyl)-N-methylbenzamide]
pest or weed control at 50 µg/cm2 [1, 5]: 50 to 100% | pest or weed control at 50 µg/cm2 [2, 6]: 50 to 100% | pest or weed control at 200 µg/mL [3, 7]: 80 to 100% | YFM (Biological Results, rating) [4]: A (80-100)

O=C(Nc1c(F)cccc1F)c1cc(NC(=O)[C@H]2[C@H](c3cc(Cl)cc(Cl)c3)C2(Br)Br)ccc1Cl (relative stereo) [F162, trans-2-Chloro-5-(2,2-dibromo-3-(3,5-dichlorophenyl)cyclopropane-1-carboxamido)-N-(2,6-difluorophenyl)benzamide]
pest or weed control at 50 µg/cm2 [1, 5]: 50 to 100% | pest or weed control at 50 µg/cm2 [2, 6]: 50 to 100% | pest or weed control at 200 µg/mL [3, 7]: 0 to 80% | YFM (Biological Results, rating) [4]: B (More than 0-Less than 80)

Cc1ccccc1NC(=O)c1cc(NC(=O)[C@H]2[C@H](c3cc(Cl)cc(Cl)c3)C2(Cl)Cl)ccc1Cl (relative stereo) [F9, trans-2-Chloro-5-(2,2-dichloro-3-(3,5-dichlorophenyl)cyclopropane-1-carboxamido)-N-(o-tolyl)benzamide]
pest or weed control at 50 µg/cm2 [1, 5]: 50 to 100% | pest or weed control at 50 µg/cm2 [2, 6]: 50 to 100% | pest or weed control at 200 µg/mL [3, 7]: 80 to 100% | YFM (Biological Results, rating) [4]: A (80-100)

O=C(Nc1ccc(F)cc1F)c1cc(NC(=O)[C@H]2[C@H](c3cc(Cl)cc(Cl)c3)C2(Cl)Cl)ccc1Cl (relative stereo) [F18, trans-2-Chloro-5-(2,2-dichloro-3-(3,5-dichlorophenyl)cyclopropane-1-carboxamido)-N-(2,4-difluorophenyl)benzamide]
pest or weed control at 50 µg/cm2 [1, 5]: 50 to 100% | pest or weed control at 50 µg/cm2 [2, 6]: 50 to 100% | pest or weed control at 200 µg/mL [3, 7]: 80 to 100% | YFM (Biological Results, rating) [4]: A (80-100)

O=C(Nc1cccnc1Cl)c1cc(NC(=O)[C@H]2[C@H](c3cc(Cl)cc(Cl)c3)C2(Cl)Cl)ccc1Cl (relative stereo) [F31, trans-2-Chloro-N-(2-chloropyridin-3-yl)-5-(2,2-dichloro-3-(3,5-dichlorophenyl)cyclopropane-1-carboxamido)benzamide]
pest or weed control at 50 µg/cm2 [1, 5]: 50 to 100% | pest or weed control at 50 µg/cm2 [2, 6]: 50 to 100% | pest or weed control at 200 µg/mL [3, 7]: 80 to 100% | YFM (Biological Results, rating) [4]: A (80-100)

O=C(Nc1ccc(F)cc1)c1cc(NC(=O)[C@H]2[C@H](c3cc(Cl)cc(Cl)c3)C2(Cl)Cl)ccc1Cl [F165, 2-Chloro-5-((1R,3R)-2,2-dichloro-3-(3,5-dichlorophenyl)cyclopropane-1-carboxamido)-N-(4-fluorophenyl)benzamide]
pest or weed control at 50 µg/cm2 [1, 5]: 50 to 100% | pest or weed control at 50 µg/cm2 [2, 6]: 50 to 100% | pest or weed control at 200 µg/mL [3, 7]: 80 to 100% | YFM (Biological Results, rating) [4]: B (More than 0-Less than 80)

O=C(Nc1ccc(F)cc1)c1ccc(Cl)c(NC(=O)[C@H]2[C@H](c3cc(Cl)cc(Cl)c3)C2(Cl)Cl)c1 (relative stereo) [F130, trans-4-Chloro-3-(2,2-dichloro-3-(3,5-dichlorophenyl)cyclopropane-1-carboxamido)-N-(4-fluorophenyl)benzamide]
pest or weed control at 50 µg/cm2 [2, 6]: 50 to 100% | pest or weed control at 200 µg/mL [3, 7]: 0 to 80% | YFM (Biological Results, rating) [4]: B (More than 0-Less than 80)

O=C(Nc1ccc(Cl)c(C(=O)N2CCc3cc(F)ccc32)c1)[C@H]1[C@H](c2cc(Cl)cc(Cl)c2)C1(Cl)Cl (relative stereo) [F155, trans-2,2-Dichloro-N-(4-chloro-3-(5-fluoroindoline-1-carbonyl)phenyl)-3-(3,5-dichlorophenyl)cyclopropane-1-carboxamide]
pest or weed control at 50 µg/cm2 [1, 5]: 50 to 100% | pest or weed control at 50 µg/cm2 [2, 6]: 50 to 100% | pest or weed control at 200 µg/mL [3, 7]: 0 to 80%

COc1ccc(NC(=O)c2cc(NC(=O)[C@H]3[C@H](c4cc(Cl)cc(Cl)c4)C3(Cl)Cl)ccc2Cl)cc1 (relative stereo) [F146, trans-2-chloro-5-(2,2-dichloro-3-(3,5-dichlorophenyl)cyclopropane-1-carboxamido)-N-(4-methoxyphenyl)benzamide]
pest or weed control at 50 µg/cm2 [1, 5]: 50 to 100% | pest or weed control at 50 µg/cm2 [2, 6]: 50 to 100% | pest or weed control at 200 µg/mL [3, 7]: 80 to 100%

O=C(Nc1cc(F)cc(F)c1)c1cc(NC(=O)[C@H]2[C@H](c3cc(Cl)cc(Cl)c3)C2(Cl)Cl)ccc1Cl (relative stereo) [F154, trans-2-Chloro-5-(2,2-dichloro-3-(3,5-dichlorophenyl)cyclopropane-1-carboxamido)-N-(3,5-difluorophenyl)benzamide]
pest or weed control at 50 µg/cm2 [1, 5]: 50 to 100% | pest or weed control at 50 µg/cm2 [2, 6]: 50 to 100% | pest or weed control at 200 µg/mL [3, 7]: 80 to 100%
